Assays:
Assay type in all cases: cell-based
ACC = experiment: Effect of saponins of the extract on activity of ACC in 3T3-L1 cells (p-ACC); conditions: FIG. 1 and FIG. 2
Description: (§1) The effect of the saponins of the extract according to the present disclosure on the activity of AMPK, ACC and FAS in 3T3-L1 cells is shown in FIG. 1 and FIG. 2. AMPK is an enzyme involved in fatty acid oxidation, inhibition of adipocyte differentiation, etc. It is involved in inhibition of fatty acid biosynthesis and fatty acid degradation by phosphorylating (inactivating) ACC through AMPK phosphorylation (p-AMPK). FAS (fatty acid synthase) plays a role of promoting fatty acid synthesis.

fat accumulation = experiment: Effect of saponins of the fermented extract on fat accumulation (FIG. 3); conditions: as compared to a control group
Description: The effect of the saponins of the extract of fermented Gynostemma pentaphyllum according to the present disclosure on fat accumulation was investigated.

[1] = test system: FAS (fatty acid synthase); experiment: Effect of saponins of the extract on FAS expression in 3T3-L1 cells; conditions: FIG. 1 and FIG. 2
Description: as §1

AMPK = experiment: Effect of saponins of the extract on activity of AMPK in 3T3-L1 cells (p-AMPK); conditions: FIG. 1 and FIG. 2
Description: as §1

CC(C)=CCC[C@@](C)(O)[C@H]1CC[C@]2(C)[C@@H]1[C@H](O)C[C@@H]1[C@@]3(C)C[C@@H](O)[C@H](O[C@@H]4O[C@H](CO)[C@@H](O)[C@H](O)[C@H]4O[C@@H]4O[C@H](CO)[C@@H](O)[C@H](O)[C@H]4O)C(C)(C)[C@@H]3CC[C@]12C [gypenoside LI]
activation of p-ACC (ACC): activated p-AMPK and p-ACC in a concentration-dependent manner | inhibition of fat accumulation (fat accumulation): exhibited an effect of inhibiting fat accumulation | expression of FAS (fatty acid synthase) [1]: inhibiting the expression of FAS | activation of p-AMPK (AMPK): activated p-AMPK and p-ACC in a concentration-dependent manner

CC(C)=CCC[C@](C)(O)[C@H]1CC[C@]2(C)[C@@H]1[C@H](O)C[C@@H]1[C@@]3(C)C[C@@H](O)[C@H](O[C@@H]4O[C@H](CO)[C@@H](O)[C@H](O)[C@H]4O[C@@H]4O[C@H](CO)[C@@H](O)[C@H](O)[C@H]4O)C(C)(C)[C@@H]3CC[C@]12C [gypenoside L]
inhibition of fat accumulation (fat accumulation): exhibited an effect of inhibiting fat accumulation

CC(C)=CCC[C@](C)(O)[C@H]1CC[C@]2(C)[C@@H]1[C@H](O)C[C@@H]1[C@@]3(C)CC[C@H](O[C@@H]4O[C@H](CO)[C@@H](O)[C@H](O)[C@H]4O[C@@H]4O[C@H](CO)[C@@H](O)[C@H](O)[C@H]4O)C(C)(C)[C@@H]3CC[C@]12C [ginsenoside Rg3]
activation of p-ACC (ACC): activated p-AMPK and p-ACC in a concentration-dependent manner | inhibition of fat accumulation (fat accumulation): exhibited an effect of inhibiting fat accumulation | expression of FAS (fatty acid synthase) [1]: inhibiting the expression of FAS | activation of p-AMPK (AMPK): activated p-AMPK and p-ACC in a concentration-dependent manner

Source: US20190000905A1, “Gynostemma pentaphyllum fermented extracts comprising Saponins as an active functional food ingredient and preparation method thereof” (BTC Co., Ltd., priority 2017, published 2019)
